Results from patent publication US9320271B2, “Microbial composition” (Rohm and Haas Company, priority 2011, dated 2016).
“And” between values parts separate entries of the source, which are not always exact repeats. Equal entries are not always repeated.

Tests used:
[1] = tested on: Escherichia coli (E. coli—ATCC #10536); assay: Automated assessment of efficacy in surfactant base (2.85% sodium cocoyl glycinate and 1.85% sodium lauroamphoacetate, pH 10.0), 15 seconds exposure; assay type: cell-based; settings: for MBC (minimum biocidal concentration): in 2.85% sodium cocoyl glycinate + 1.85% sodium lauroamphoacetate solution at pH 10, E. coli; for No. of replicates showing growth (out of 4) / Δ OD 450 nm = OD450 (time = 16 hours) − OD450 (time zero), Mean / Δ OD 590 nm OD590 (time = 16 hours) − OD590 (time zero), Mean: alone, model surfactant solution
Description: Test Methodology for Automated Assessment of Efficacy in Surfactant Base Microbiocidal Activity of Actives as Per the Invention in a Model Surfactant Medium Test Methodology for Automated Assessment of Efficacy in Surfactant Base In these examples, the efficacy of combinations of actives were tested in a surfactant cleansing formulation comprising 2.85% sodium cocoyl glycinate and 1.85% sodium lauroamphoacetate. This corresponds to a 50% in use dilution with water of a neat formulation containing 5.7% cocoyl glycinate and […] % sodium, lauroamphoacetate during hand washing. Solutions were prepared such that the concentrations of the surfactant components and test actives were 1.1× the final desired concentration in order to allow for dilution with the bacterial inoculum in the test. The solutions were manually adjusted to pH 10.0 by dropwise addition of sodium hydroxide solution, as measured with a pH meter at ambient temperature. The efficacy of the combinations of the present invention was determined against Escherichia coli (E. coli—ATCC #10536), at a concentration of approximately 1×10^8 bacteria per mL. Tests were conducted using standard microtiter plate assays using an automated liquid handling system. 270 μl of the surfactant test solution was pipetted into each well of the microtitre plate and 30 μl of the bacterial suspension was then added. Alter exactly 15 seconds of bacterial exposure, a 30 μl volume of bacterial cells was withdrawn and transferred to 270 μl of D/E quench solution. After 5 minutes in the D/E quench, the optical density (OD) was measured for each plate in turn at two specific wavelengths (450 nm and 590 nm). These provide a dual check of antimicrobial activity, as the OD450 reading is specific for the yellow colour of D/E quench when bacterial growth is observed, whereas OD590 is specific for the initial purple colour of the D/E quench which is retained if no bacterial growth is observed. After the time zero OD measurements, plates were then incubated at 37° C. overnight (16 hours) before repeating the OD measurements. Delta OD values were calculated by subtracting […]. Bacterial growth is observed as an increase in OD450 and a decrease in ΔOD590. To identify antibacterially efficacious systems (those preventing appreciable bacterial growth after incubation), the following threshold changes in OD readings have been adopted: if (1). OD450 increases by less than 0.2 absorbance unit on incubation and (2). OD590 decreases by less than 0.35 unit on incubation. Conversely, where OD450 increases by more than 0.2 AU and OD590 decreases by more than 0.35 unit after incubation, corresponding to a colour shift from purple to yellow, the test system allows bacterial growth and is not deemed efficacious. Four replicate measurements in the same plate have been made for each test system. The number of replicate wells showing either bacterial growth or no growth is also readily assessed by eye by following the colour change. Dose responses for individual components and binary mixtures of actives at a fixed concentration ratio were generated by sequential dilution of liquors with further surfactant solution to obtain a series of endpoints. […] In some selected cases, the combinations were also tested at the weight ratio 1:1.

[2] = tested on: Escherichia coli (E. coli—ATCC #10536); assay: Synergy test: high resolution MBC microtiter plate assay, phosphate buffer containing 35% dipropylene glycol, 15 seconds contact; assay type: cell-based; settings: E. coli 10536; for SI (Synergy Index): at Qa and Qb, less than one = synergy; for MBC of the component acting alone (QA / QB; Qa or Qb where the other component is 0): complete kill in 15 seconds
Description: The concentrations and ratios may also vary under different test conditions or with different test methods.
One measure of synergy is the industrially accepted method described by Kull, F. C.; Eisman, P. C.; Sylwestrowicz, H. D, and Mayer, R. L., in Applied Microbiology 9:538-541 (1961), using the ratio determined by the formula: […]=Synergy Index (“SI”) wherein; QA=concentration of compound A (first component) in percent, acting alone, which produced an end point (MBC of Compound A). Qa=concentration of compound A in percent, in the mixture, which produced an end point. QB=concentration of compound B (second component) in percent, acting alone, which, produced an end point (MBC of Compound B). Qb=concentration of compound B in percent, in the mixture, which produced an end point.
When the sum of Qa/QA and Qb/QB is greater than one, antagonism is indicated. […] The lower the SI, the greater is the synergy shown by that particular mixture. The minimum biocidal concentration (MBC) of a microbicide is the lowest concentration tested under a specific set of conditions that provides complete kill of the tested microorganisms.
Synergy tests were conducted using standard microliter plate assays with phosphate buffer containing 35% dipropylene glycol (DPG). In this method, a wide range of combinations of chemicals was tested by conducting high resolution MBC assays of Component (A) in the presence of various concentrations of Component (B). High resolution MBCs were determined by adding varying amounts of microbicide to one column of a microliter plate and doing subsequent […] dilutions using an automated liquid handling, system to obtain a series of closely spaced endpoints. The MBC plate was inoculated one column at a time with the test microorganism. An aliquot of the inoculated well was transferred at 15 seconds to a plate containing a neutralizing agent (D/E Neutralizing Broth), mixed and held for 5 minutes before being transferred to a growth plate containing trypticase soy broth (TSB). The TSB plate was incubated at 37° C. and read for the presence/absence of growth at 24 hours. The lowest level tested that provided complete kill (as evidenced by no growth in the microtitre plate) of the test organisms in 15 seconds is the minimum biocidal concentration (MBC).
The synergy of the combinations of the present invention was determined against a bacterium, Escherichia coli (E. coli—ATCC #10536), at a concentration of approximately 1×10^8 it bacteria per mL. This microorganism is representative of natural contaminants in many consumer and industrial applications.

| Structure (SMILES) | MBC (minimum biocidal concentration) [1] [% w/v] | SI (Synergy Index) [2] | MBC of the component acting alone (QA / QB; Qa or Qb where the other component is 0) [2] | No. of replicates showing growth (out of 4) ([1]; 0.1% w/v) | Δ OD 450 nm = OD450 (time = 16 hours) − OD450 (time zero), Mean ([1]; 0.1% w/v) | Δ OD 590 nm OD590 (time = 16 hours) − OD590 (time zero), Mean ([1]; 0.1% w/v) | No. of replicates showing growth (out of 4) ([1]; 0.2% w/v) | Δ OD 450 nm = OD450 (time = 16 hours) − OD450 (time zero), Mean ([1]; 0.2% w/v) | Δ OD 590 nm OD590 (time = 16 hours) − OD590 (time zero), Mean ([1]; 0.2% w/v) | No. of replicates showing growth (out of 4) ([1]; […] w/v) | Δ OD 450 nm = OD450 (time = 16 hours) − OD450 (time zero), Mean ([1]; […] w/v) | Δ OD 590 nm OD590 (time = 16 hours) − OD590 (time zero), Mean ([1]; […] w/v) | also measured |
| --- | --- | --- | --- | --- | --- | --- | --- | --- | --- | --- | --- | --- | --- |
| CC1=CC(C)C(CO)C(C)C1 (centres unmarked) [2,4,6-trimethyl-3-cyclohexene-1-methanol] | 0.4 | 1.00 | 0.6 weight % and 1 weight % and 0.8 weight % and 0.3 weight % |  |  |  |  |  |  |  |  |  |  |
| CC1=CCC(C(C)CO)CC1 (centres unmarked) [2-(4-methylcyclohex-3-enyl)propan-1-ol] |  | 1.00 | 0.3 weight % and 0.25 weight % |  |  |  |  |  |  |  |  |  | MBC of the component acting alone (QA / QB; Qa or Qb where the other component is 0) ([2]; listed as 2-(4-methylcylohex-3-enyl)propan-1-ol): 0.25 weight % |
| Oc1ccccc1C1CCCC1 [2-cyclopentylphenol] | >0.2 | 1.00 | 0.3 weight % and 0.5 weight % | 4 | −0.57 | 0.56 | 4 | −0.52 | 0.61 | 4 | −0.56 | 0.54 |  |
| Oc1ccccc1Cc1ccccc1 [2-hydroxydiphenylmethane] | >0.2 | 1.00 | 0.8 weight % and 0.5 weight % and 0.6 weight % | 4 | −0.51 | 0.62 | 4 | −0.51 | 0.63 | 4 | −0.49 | 0.64 |  |
| Cc1cc(O)c(C(C)C)cc1Cl [4-chloro-2-isopropyl-5-methylphenol, reference compound] | >0.2 |  |  |  |  |  |  |  |  |  |  |  |  |
| Cc1cc(O)cc(C)c1Cl [4-chloro-3,5-dimethylphenol] | >0.2 | 1.00 | 0.6 weight % and 1.0 weight % and 0.5 weight % | 4 | −0.49 | 0.63 | 4 | −0.50 | 0.62 | 4 | −0.47 | 0.63 |  |
| Oc1ccc(C2CCCC2)cc1 [4-cyclopentylphenol] | >0.2 | 1.00 | 0.3 weight % and 0.5 weight % and 0.2 weight % |  |  |  | 4 | −0.40 | 0.70 | 4 | −0.45 | 0.65 | No. of replicates showing growth (out of 4) ([1]; 0.125% w/v): 4; Δ OD 450 nm = OD450 (time = 16 hours) − OD450 (time zero), Mean ([1]; 0.125% w/v): −0.49; Δ OD 590 nm OD590 (time = 16 hours) − OD590 (time zero), Mean ([1]; 0.125% w/v): 0.62 |
| Oc1ccc(Cc2ccccc2)cc1 [4-hydroxydiphenylmethane] | >0.2 | 1.00 | 0.8 weight % and 0.6 weight % | 4 | −0.58 | 0.52 | 4 | −0.52 | 0.61 | 4 | −0.55 | 0.54 |  |
| CC(C)(C)c1ccc(O)c(O)c1 [4-tert-butylbenzene-1,2-diol] | >0.2 | 1.00 | 1.00 weight % and 1.0 weight % |  |  |  | 4 | −1.66 | 0.17 | 4 | −1.63 | 0.20 | No. of replicates showing growth (out of 4) ([1]; 0.125% w/v): 4; Δ OD 450 nm = OD450 (time = 16 hours) − OD450 (time zero), Mean ([1]; 0.125% w/v): −1.63; Δ OD 590 nm OD590 (time = 16 hours) − OD590 (time zero), Mean ([1]; 0.125% w/v): 0.22 |
| Oc1cccc2c1CCCC2 [5,6,7,8-tetrahydronaphthalen-1-ol] | >0.2 | 1.00 | 0.6 weight % | 4 | −0.57 | 0.56 | 4 | −0.47 | 0.65 | 4 | −0.52 | 0.58 |  |
| C=C(C)[C@@H]1CC=C(CO)CC1 [(S)-(−) perillyl alcohol] |  |  |  |  |  |  | 4 | −1.49 | 0.29 |  |  |  | No. of replicates showing growth (out of 4) ([1]; 0.5% w/v): 0; Δ OD 450 nm = OD450 (time = 16 hours) − OD450 (time zero), Mean ([1]; 0.5% w/v): −0.04; Δ OD 590 nm OD590 (time = 16 hours) − OD590 (time zero), Mean ([1]; 0.5% w/v): 0.07 |
| CC1=CC(C)C(CO)C(C)C1 (centres unmarked) [Isocyclo-Geraniol] |  |  |  |  |  |  | 4 | −1.50 | 0.29 | 4 |  |  | No. of replicates showing growth (out of 4) ([1]; 0.4% w/v): 0; Δ OD 450 nm = OD450 (time = 16 hours) − OD450 (time zero), Mean ([1]; 0.4% w/v): −0.06; Δ OD 590 nm OD590 (time = 16 hours) − OD590 (time zero), Mean ([1]; 0.4% w/v): 0.09 |
